# In patent US9150543B2, “Substituted indolyl alkyl amino derivatives as inhibitors of histone deacetylase” (Janssen Pharmaceutica N. V., priority 2004, dated 2015):
# Where two headings read alike, the source gives them in different places.
# Key:
# [1] = Metabolic stability with rat hepatocytes cell culture (C.5.b); type: in vitro ADME; settings: 5 μM
# Procedure: Rat hepatocytes were isolated from male Sprague Dowley rats. The compounds were dissolved to a 5 mM stock solution in 100% DMSO and incubated at a final concentration of 5 μM for 0, 15, 30, 60 and 120 min with rat hepatocyte cell cultures (0.5 million viable cells/0.5 ml) using 24-well plates.
# Samples were prepared for LC-MS by addition of two volumes of DMSO. The samples were thoroughly shaken and subsequently centrifuged at 900 g for 10 min (room temperature). All experiments were performed in triplicate. Of the resulting supernatant 50 μl was analysed by LC-MS.
# For LC-MS, elution of samples was performed on a Hypersil BDS C18 column (50×4.6 mm, 5 μm, Thermohypersil, UK). The HPLC system comprised a Surveyor delivery system (Surveyor Inc., San Jose, US) equipped with a Surveyor autosampler device. Elution was with buffer A (10 mM ammoniumacetate (pH 6.9) in H2O/Acetonitrile (95:5)) and solvent B (acetonitrile) at a flow rate of 1.2 ml/min. The gradient employed was 0.5 min solvent A as start condition followed by increasing the organic phase concentration from 0% B till 95% B over 2 min in a linear fashion. This phase was kept stationary for a further 2 min and reduced again to 0% B within 0.5 min.
# Total injection volume of samples was 50 μL. Column oven temperature was kept at 40° C. The LC flow was splitted for MS detection and 0.1 ml let into the source. An triple quadrupol mass spectrometer TSQ Quantum (Thermofinnigan, LaJolla, USA) mass spectrometer fitted with an ESI source was used for detection. Source voltage was set at 3800 volt, the capillary temperature at 300° C. The mass spectrometer was operated in positive ion mode in SIM adjusted to the mass of M+H with a scan width of 1 Da for quantification purposes. Instrument control, data acquisition and processing were performed using the Xcalibur software (ThermoFinnigan, San Jose, Calif., U.S.A). The metabolic stability of compounds in rat hepatocytes was expressed as in vitro half-lives.
# [2] = system: p21 promoter reporter A2780 tumour in nude mice; experiment: p21 promoter induction, in vivo method, tumour fluorescence (C.6.c); settings: 20-40 mpk orally or intravenously daily during 6 days, ranked inactive, weaker, identical or better than R306465
# Procedure: Another method tests the capacity of compounds to induce p21 as the consequence of HDAC inhibition at the cellular level. […] The reporter gene is a fluorescent protein and the expression of the reporter gene is measured as the amount of fluorescent light emitted (see example C.6.b.). The last method is an in vivo method wherein mice are used for screening the pharmaceutical activity of a compound. The above described stably transformed tumour cells can be administered to mice in an amount sufficient to effect production of a tumour. After the tumour cells had sufficient time to form a tumour, a potentially active compound can be administered to the animals and the effect of said compound on the tumour cells is evaluated by measuring the expression of the reporter gene. Incubation with pharmaceutical active compounds will result in an increase of reporter gene expression compared to the control levels (see example C.6.c.)
# A selected clone was injected subcutaneous (10^7 cells/200 μl) into the flank of nude mice and a calliper measurable tumour was obtained after 12 days. […] Tumours were evaluated for fluorescence by the in-house developed Automated Whole Body Imaging System (Fluorescent stereomicroscope type Olympus® SZX12 equipped with a GFP filter and coupled to a CCD camera type JAI® CV-M90 controlled by a software package based on the IMAQ Vision Software from National Instruments®). […]
# [3] = biological target: histone deacetylase (HeLa nuclear extracts); experiment: In vitro assay for inhibition of histone deacetylase with [3H]-labelled substrate (C.1.a); type: biochemical; settings: [3H]-acetylated histone H4 peptide substrate
# Procedure: As a substrate for measuring HDAC activity a synthetic peptide, i.e. the amino acids 14-21 of histone H4, was used. The substrate is biotinylated at the NH2-terminal part with a 6-aminohexanoic acid spacer, and is protected at the COOH-terminal part by an amide group and specifically [^3H]acetylated at lysine 16. The substrate, biotin-(6-aminohexanoic)Gly-Ala-([^3H]-acetyl-Lys-Arg-His-Arg-Lys-Val-NH2), was added in a buffer containing 25 mM Hepes, 1 M sucrose, 0.1 mg/ml BSA and 0.01% Triton X-100 at pH 7.4. After 30 min the deacetylation reaction was terminated by the addition of HCl and acetic acid. (final concentration 0.035 mM and 3.8 mM respectively). After stopping the reaction, the free ^3H-acetate was extracted with ethylacetate. After mixing and centrifugation, the radioactivity in an aliquot of the upper (organic) phase was counted in a β-counter.
# For each experiment, controls (containing HeLa nuclear extract and DMSO without compound), a blank incubation (containing DMSO but no HeLa nuclear extract or compound) and samples (containing compound dissolved in DMSO and HeLa nuclear extract) were run in parallel. In first instance, compounds were tested at a concentration of 10^−5M. […] In each test the blank value was subtracted from both the control and the sample values. The control sample represented 100% of substrate deactylation. For each sample the radioactivity was expressed as a percentage of the mean value of the controls. […] Herein the effects of test compounds are expressed as pIC50 (the negative log value of the IC50-value) (see Table F-3).
# [4] = system: A2780 ovarian carcinoma cells; experiment: Antiproliferative activity on A2780 cells, MTT (C.2); type: cell-based; settings: Homo sapiens, 96 h, four days of incubation, read-out: Cellular activity pIC50 C.2 (converted)
# Procedure: All compounds tested were dissolved in DMSO and further dilutions were made in culture medium. Final DMSO concentrations never exceeded 0.1% (v/v) in cell proliferation assays. Controls contained A2780 cells and DMSO without compound and blanks contained DMSO but no cells. MTT was dissolved at 5 mg/ml in PBS. A glycine buffer comprised of 0.1 M glycine and 0.1 M NaCl buffered to pH 10.5 with NaOH (1N) was prepared (all reagents were from Merck).
# The human A2780 ovarian carcinoma cells (a kind gift from Dr. T. C. Hamilton [Fox Chase Cancer Centre, Pennsylvania, USA]) were cultured in RPMI 1640 medium supplemented with 2 mM L-glutamine, 50 μg/ml gentamicin and 10% fetal calf serum. Cells were routinely kept as monolayer cultures at 37° C. in a humidified 5% CO2 atmosphere. Cells were passaged once a week using a trypsin/EDTA solution at a split ratio of 1:40. All media and supplements were obtained from Life Technologies. Cells were free of mycoplasma contamination as determined using the Gen-Probe Mycoplasma Tissue Culture kit (supplier: BioMerieux).
# Cells were seeded in NUNC™ 96-well culture plates (Supplier: Life Technologies) and allowed to adhere to the plastic overnight. Densities used for plating were 1500 cells per well in a total volume of 200 μl medium. After cell adhesion to the plates, medium was changed and drugs and/or solvents were added to a final volume of 200 μl. Following four days of incubation, medium was replaced by 200 μl fresh medium and cell density and viability was assessed using an MTT-based assay. To each well, 25 μl MTT solution was added and the cells were further incubated for 2 hours at 37° C. The medium was then carefully aspirated and the blue MTT-formazan product was solubilized by addition of 25 μl glycine buffer followed by 100 μl of DMSO. […] Within an experiment, the results for each experimental condition are the mean of 3 replicate wells. For initial screening purposes, compounds were tested at a single fixed concentration of 10^−6 M. For active compounds, the experiments were repeated to establish full concentration-response curves. For each experiment, controls (containing no drug) and a blank incubation (containing no cells or drugs) were run in parallel. The blank value was subtracted from all control and sample values. For each sample, the mean value for cell growth (in absorbance units) was expressed as a percentage of the mean value for cell growth of the control. […] Herein the effects of test compounds are expressed as pIC50 (the negative log value of the IC50-value)(see Table F-3).
# [5] = Solubility/stability at different pH's, chemiluminescent nitrogen detector (C.3.b); type: physicochemical; settings: aqueous buffer; pH = 2.3
# Excerpt: In a second method the solubility of a compound at different pH's can be measured with the use of a Chemiluminescent Nitrogen Detector (see example C.3.b).
# The solubility of a compound, at different pH's, can also be measured with the use of a chemiluminescent nitrogen detector. (see Table F-3).
smiles,measurement,setting,value
COc1cc(N)c(Cl)cc1C(=O)NC1CCN(CCCOc2ccc(F)cc2)CC1OC (stereo not drawn) [Cisapride],% metabolism,"human, 15 min, 5 μM",45%
Cn1cc(CNCC2CCN(c3ncc(C(=O)NO)cn3)CC2)c2ccccc21 [Compound 1],in vitro half-live,[1],81 min
same,tumour fluorescence ranking versus R306465,[2],better than R306465
O=C(NO)c1cnc(N2CCC(CNCCc3c[nH]c4ccccc34)CC2)nc1 [Compound 5],Enzymatic activity pIC50 C.1.a.,[3],8.6
same,IC50,[4],0.316 µM
same,solubility,[5],2 mg/mL
same,in vitro half-live,[1],60 min
"O=C(NO)c1cnc(N2CCN(S(=O)(=O)c3ccc4ccccc4c3)CC2)nc1 [Compound R306465, reference compound]",in vitro half-live,[1],8 min
CCCO [propanol],% metabolism,"15 min incubation with microsomes, compound 5 μM",25%
